# What was measured:
# [1] = Inhibition of NF-kappaB by ELISA assay; parameters: species or system Homo sapiens
# Lu1 = assay: Cytotoxicity against Lu1 cells; assay type: functional; settings: Homo sapiens, read-out: ED50 (the source's name)
# LNCaP = assay: Cytotoxicity against LNCaP cells; assay type: functional; settings: Homo sapiens, read-out: ED50 (the source's name)
# MCF7 = assay: Cytotoxicity against MCF7 cells; assay type: functional; settings: Homo sapiens, read-out: ED50 (the source's name)
SMILES,IC50 [1],also measured
COc1ccc(C2OC(=O)c3c(OC)cc(OC)cc32)cc1 (centres undefined),1900 nM,–
C/C=C1/C(=O)C[C@H]2[C@@H]3CC=C4[C@@H](O)[C@@H](O)CC[C@]4(C)[C@H]3CC[C@]12C,–,EC50 (Lu1): 4.6 µg/mL; EC50 (LNCaP): 4.7 µg/mL; EC50 (MCF7): 4.2 µg/mL
COc1ccc([C@]23Oc4cc(OC)cc(OC)c4[C@](O)([C@H](C(=O)N4CCC[C@@H]4OC)[C@H]2c2ccccc2)[C@@H]3O)cc1 (relative stereo) [PONAPENSIN],60 nM,–
CCC(C)C(=O)N[C@@H]1CCCN1C(=O)[C@@H]1[C@@H](c2ccccc2)[C@]2(c3ccc(OC)cc3)Oc3cc(OC)cc(OC)c3[C@@]1(O)[C@@H]2OC(C)=O (some centres undefined) [4-EPIAGLAIN A],> 5000 nM,–
COC(=O)[C@H]1[C@@H](O)[C@@]2(O)c3c(OC)cc(OC)cc3O[C@@]2(c2ccc(OC)cc2)[C@@H]1c1ccccc1 [AGLAFOLIN],2300 nM,–
CCC(C)C(=O)N[C@@H]1CCCN1C(=O)[C@H]1[C@H](c2ccccc2)[C@]2(c3ccc(OC)cc3)Oc3cc(OC)cc(OC)c3[C@@]1(O)[C@@H]2O (some centres undefined) [AGLAIN B],> 5000 nM,–
COc1ccc([C@@]23Oc4cc(OC)cc(OC)c4[C@]2(O)[C@H](O)[C@H](C(=O)N(C)C)[C@H]3c2ccccc2)cc1 [ROCAGLAMIDE],2000 nM,–
